The record followed here is patent publication US12018258B2, “Mobile-CRISPRi plasmids and related methods” (CZ Biohub SF, LLC, priority 2019, dated 2024).

For assay [1], the system named is pathogenic Gammaproteobacteria associated with antibiotic resistance.
Protocol: MIC assays were performed using the broth microdilution method as previously described in Wiegand et al. Agar and broth dilution methods to determine the minimal inhibitory concentration (MIC) of antimicrobial substances. […] 3, 163 (2008) (28), except that 0.1% arabinose (for P. aeruginosa) or 100 μM IPTG (for E. aerogenes) was added to induce dcas9 expression, and K. pneumoniae cultures were shaken to reduce clumping. Three biological replicates were grown for MIC assays. […] P-values for comparing MICs between control sgRNA and folA sgRNA strains were obtained using an unpaired two-tailed t-test with Welch's correction to account for unequal variances between samples and calculated using GraphPad Prism 7.0e.
The test system of another assay is Enterobacter aerogenes. The settings on record: MIC assay, n=3. As for the experimental part: (§1) MIC assays were performed using the broth microdilution method as previously described in Wiegand et al. Agar and broth dilution methods to determine the minimal inhibitory concentration (MIC) of antimicrobial substances. Nat. Protoc. 3, 163 (2008) (28), except that 0.1% arabinose (for P. aeruginosa) or 100 μM IPTG (for E. aerogenes) was added to induce dcas9 expression, and K. pneumoniae cultures were shaken to reduce clumping. Three biological replicates were grown for MIC assays. Growth curves shown in FIG. 3 were set up in exactly the same manner as the MIC assays, except that cultures were grown with agitation in a plate reader (BioTek) for ˜16 hrs. P-values for comparing MICs between control sgRNA and folA sgRNA strains were obtained using an unpaired two-tailed t-test with Welch's correction to account for unequal variances between samples and calculated using GraphPad Prism 7.0e.

A further assay deals with Klebsiella pneumoniae. The settings on record: MIC assay, n=3. As for the experimental part: as §1

SMILES strings stand for the structures.

Turning to `COc1cc(Cc2cnc(N)nc2N)cc(OC)c1OC` [trimethoprim], in assay [1] (trimethoprim concentrations below the MIC for the wild type bacteria, data not shown), the “growth of the folA knockdown strains” value is “completely inhibited growth”. Besides, the “shift of the minimal inhibitory concentration (MIC)” value in assay [1] ({}) is given as 2-4 fold. For the same molecule, the “sensitivity to trimethoprim after CRISPRi knockdown of folA” value in the assay on Enterobacter aerogenes and in the assay with Klebsiella pneumoniae was “increased sensitivity” each time.
